In patent publication US20200062767A1, “SUBSTITUTED PYRROLIDINYL AND PIPERIDINYL PYRAZOLOPYRIDAZINE DERIVATIVES HAVING MULTIMODAL ACTIVITY AGAINST PAIN” (ESTEVE PHARMACEUTICALS, S.A., priority 2017, published 2020) one finds Ki data, which are given here for 19 compounds.

The target in test [1] is Human norepinephrine transporter (NET) (Homo sapiens, UniProt P23975). As to the kind of experiment: Binding assay to human norepinephrine transporter (NET). As to conditions: expressed as Ki; [3H]-Nisoxetin, human NET enriched membranes. Here is the method: Binding Assay to Human Norepinephrine Transporter (NET).
Human norepinephrine transporter (NET) enriched membranes (5 μg) were incubated with 5 nM of radiolabeled [3H]-Nisoxetin in assay buffer containing 50 mM Tris-HCl, 120 mM NaCl, 5 mM KCl, pH 7.4.
(§1) NSB (non specific binding) was measured by adding 10 μM of desipramine. The binding of the test compound was measured at five different concentrations. After 60 min incubation at 4° C., binding reaction was terminated by filtering through Multiscreen GF/C (Millipore) presoaked in 0.5% polyethyleneimine in Vacuum Manifold Station, followed by 3 washes with ice-cold filtration buffer containing 50 mM Tris-HCl, 0.9% NaCl, pH 7.4.
Filter plates were dried at 60° C. for 1 hour and 30 μL of scintillation cocktail were added to each well before radioactivity reading.
Readings were performed in a Trilux 1450 Microbeta radioactive counter (Perkin Elmer).

For test [2], the target named is Human α2δ−1 subunit of Cav2.2 calcium channel (Homo sapiens, UniProt P54289). As to the kind of experiment: Human α2δ−1 subunit of Cav2.2 calcium channel assay. As to conditions: expressed as Ki; [3H]-Gabapentin, human α2δ−1 enriched membranes; read-out: Binding α2δ-1. Here is the method:
as §1, with “Human α2δ−1 Subunit of Cav2.2 Calcium Channel Assay Human α2δ−1 enriched membranes (2.5 μg) were incubated with 15 nM of radiolabeled [3H]-Gabapentin in assay buffer containing Hepes-KOH 10 mM, pH 7.4. NSB” for “NSB”, “pregabalin.” for “of desipramine.”, “27°” for “4°”, “Tris-HCl,” for “Tris-HCl, 0.9% NaCl,”
Filter plates were dried at 60° C. for 1 hour and 30 μL of scintillation cocktail were added to each well before radioactivity reading. Readings were performed in a Trilux 1450 Microbeta radioactive counter (Perkin Elmer).

Sequence of Human norepinephrine transporter (NET) (P23975 whole entry): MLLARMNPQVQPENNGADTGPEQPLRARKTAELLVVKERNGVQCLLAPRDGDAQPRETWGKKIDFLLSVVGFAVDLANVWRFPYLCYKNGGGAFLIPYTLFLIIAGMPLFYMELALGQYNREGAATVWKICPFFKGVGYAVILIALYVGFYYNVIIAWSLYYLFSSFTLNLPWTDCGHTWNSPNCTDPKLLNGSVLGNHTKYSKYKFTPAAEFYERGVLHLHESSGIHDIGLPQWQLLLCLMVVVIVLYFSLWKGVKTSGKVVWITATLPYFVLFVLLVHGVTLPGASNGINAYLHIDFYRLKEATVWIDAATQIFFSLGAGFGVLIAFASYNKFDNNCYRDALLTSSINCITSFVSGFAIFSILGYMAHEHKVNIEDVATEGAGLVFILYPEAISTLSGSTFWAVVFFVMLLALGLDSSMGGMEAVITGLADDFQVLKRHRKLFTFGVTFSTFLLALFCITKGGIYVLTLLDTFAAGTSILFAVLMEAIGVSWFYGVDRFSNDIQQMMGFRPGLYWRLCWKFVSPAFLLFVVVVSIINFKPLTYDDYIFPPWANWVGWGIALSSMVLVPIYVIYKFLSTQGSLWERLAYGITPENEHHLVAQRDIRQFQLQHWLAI
Sequence of Human α2δ−1 subunit of Cav2.2 calcium channel (P54289 25-1103): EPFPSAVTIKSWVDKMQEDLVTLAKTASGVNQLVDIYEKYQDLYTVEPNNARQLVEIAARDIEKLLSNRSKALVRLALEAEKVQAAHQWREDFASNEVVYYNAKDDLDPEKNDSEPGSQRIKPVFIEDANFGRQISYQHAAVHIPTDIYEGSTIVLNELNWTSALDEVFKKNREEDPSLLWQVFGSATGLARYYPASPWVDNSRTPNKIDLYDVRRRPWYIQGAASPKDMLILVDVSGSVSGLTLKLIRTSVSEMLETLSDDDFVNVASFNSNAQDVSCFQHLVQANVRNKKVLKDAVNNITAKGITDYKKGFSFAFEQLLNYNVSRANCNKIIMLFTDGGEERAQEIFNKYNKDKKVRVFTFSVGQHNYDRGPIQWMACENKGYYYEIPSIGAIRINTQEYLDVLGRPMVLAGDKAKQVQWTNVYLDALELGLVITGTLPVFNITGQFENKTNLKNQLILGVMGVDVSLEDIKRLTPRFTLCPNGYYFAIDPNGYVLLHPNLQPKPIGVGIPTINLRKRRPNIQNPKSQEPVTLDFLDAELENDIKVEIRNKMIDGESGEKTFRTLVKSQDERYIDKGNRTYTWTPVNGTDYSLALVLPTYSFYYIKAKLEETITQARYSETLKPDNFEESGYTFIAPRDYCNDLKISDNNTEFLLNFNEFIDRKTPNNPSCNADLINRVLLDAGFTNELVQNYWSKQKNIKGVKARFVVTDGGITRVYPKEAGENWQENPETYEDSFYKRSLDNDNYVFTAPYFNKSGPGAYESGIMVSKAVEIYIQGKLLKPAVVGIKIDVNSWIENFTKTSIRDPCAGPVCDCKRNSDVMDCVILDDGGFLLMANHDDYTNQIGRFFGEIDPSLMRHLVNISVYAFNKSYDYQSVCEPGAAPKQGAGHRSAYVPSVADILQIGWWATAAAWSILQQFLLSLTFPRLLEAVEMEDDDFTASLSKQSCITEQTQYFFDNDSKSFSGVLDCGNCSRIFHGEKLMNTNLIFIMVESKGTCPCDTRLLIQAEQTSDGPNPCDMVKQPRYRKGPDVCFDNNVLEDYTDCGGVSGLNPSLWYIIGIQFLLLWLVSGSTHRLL

With `CCOc1ccc(-n2nc3c(N4CC[C@H](NC(=O)Cc5cccnc5)C4)nnc(C)c3c2C)c(F)c1` [Example 19, (S)-N-(1-(2-(4-ethoxy-2-fluorophenyl)-3,4-dimethyl-2H-pyrazolo[3,4-d]pyridazin-7-yl)pyrrolidin-3-yl)-2-(pyridin-3-yl)acetamide], the Ki in test [1] is at least 1000 nM; in test [2] it was under 500 nM.
Turning to `CCOc1ccc(-n2nc3c(N4CCC[C@H](N(C)C)C4)nnc(C)c3c2C)c(F)c1` [Example 17, (S)-1-(2-(4-ethoxy-2-fluorophenyl)-3,4-dimethyl-2H-pyrazolo[3,4-d]pyridazin-7-yl)-N,N-dimethylpiperidin-3-amine], the results for the Ki in test [1] and in test [2] were at least 1000 nM and 500 to 5000 nM, respectively.
On the same counts, the results for `CCOc1ccc(-n2nc3c(N4CC[C@H](N(C)Cc5ccccc5)C4)nnc(C)c3c2C)c(F)c1` [Example 16, (S)-N-benzyl-1-(2-(4-ethoxy-2-fluorophenyl)-3,4-dimethyl-2H-pyrazolo[3,4-d]pyridazin-7-yl)-N-methylpyrrolidin-3-amine] are 500 to 1000 nM and under 500 nM.
On the same counts, the results for `CCOc1ccc(-n2nc3c(N4CC[C@H](NCCc5ccc(F)cc5)C4)nnc(C)c3c2C)c(F)c1` [Example 5, (S)-1-(2-(4-ethoxy-2-fluorophenyl)-3,4-dimethyl-2H-pyrazolo[3,4-d]pyridazin-7-yl)-N-(4-fluorophenethyl)pyrrolidin-3-amine] are at least 1000 nM and under 500 nM.
On to `CCOc1ccc(-n2nc3c(N4CC[C@H](NCc5ccccn5)C4)nnc(C)c3c2C)c(F)c1` [Example 4, (S)-1-(2-(4-ethoxy-2-fluorophenyl)-3,4-dimethyl-2H-pyrazolo[3,4-d]pyridazin-7-yl)-N-(pyridin-2-ylmethyl)pyrrolidin-3-amine], for which the Ki in test [1] is at least 1000 nM; in test [2], under 500 nM.
As for `CCOc1ccc(-n2nc3c(N4CC[C@H](NCCc5ccccc5)C4)nnc(C)c3c2C)c(F)c1` [Example 2, (S)-1-(2-(4-ethoxy-2-fluorophenyl)-3,4-dimethyl-2H-pyrazolo[3,4-d]pyridazin-7-yl)-N-phenethylpyrrolidin-3-amine], the Ki was 500 to 1000 nM in test [1] and under 500 nM in test [2].
In the same order, the values of `CCOc1ccc(-n2nc3c(N4CC[C@@H](NCc5ccccc5)C4)nnc(C)c3c2C)c(F)c1` [Example 10, (R)-N-benzyl-1-(2-(4-ethoxy-2-fluorophenyl)-3,4-dimethyl-2H-pyrazolo[3,4-d]pyridazin-7-yl)pyrrolidin-3-amine] are 100 to 500 nM and under 500 nM.
Consider `CCOc1ccc(-n2nc3c(N4CC[C@H](NCc5ncccc5F)C4)nnc(C)c3c2C)c(F)c1` [Example 13, (S)-1-(2-(4-ethoxy-2-fluorophenyl)-3,4-dimethyl-2H-pyrazolo[3,4-d]pyridazin-7-yl)-N-((3-fluoropyridin-2-yl)methyl)pyrrolidin-3-amine], for which the Ki is 500 to 1000 nM in test [1] and under 500 nM in test [2].
As for `CCOc1ccc(-n2nc3c(N4CC[C@H](NCc5cccc(OC)c5)C4)nnc(C)c3c2C)c(F)c1` [Example 6, (S)-1-(2-(4-ethoxy-2-fluorophenyl)-3,4-dimethyl-2H-pyrazolo[3,4-d]pyridazin-7-yl)-N-(3-methoxybenzyl)pyrrolidin-3-amine], the Ki is 500 to 1000 nM in test [1] and under 500 nM in test [2].
In the same order, the values of `CCOc1ccc(-n2nc3c(N4CC[C@H](NCc5ccncc5)C4)nnc(C)c3c2C)c(F)c1` [Example 12, (S)-1-(2-(4-ethoxy-2-fluorophenyl)-3,4-dimethyl-2H-pyrazolo[3,4-d]pyridazin-7-yl)-N-(pyridin-4-ylmethyl)pyrrolidin-3-amine] are at least 1000 nM and under 500 nM.
For `CCOc1ccc(-n2nc3c(N4CC[C@H](N(C)Cc5cccc(O)c5)C4)nnc(C)c3c2C)c(F)c1` [Example 15, (S)-3-(((1-(2-(4-Ethoxy-2-fluorophenyl)-3,4-dimethyl-2H-pyrazolo[3,4-d]pyridazin-7-yl)pyrrolidin-3-yl)(methyl)amino)methyl)phenol], the Ki is at least 1000 nM in test [1] and under 500 nM in test [2].
On the same counts, the results for `CCOc1ccc(-n2nc3c(N4CC[C@H](NCc5cncc(F)c5)C4)nnc(C)c3c2C)c(F)c1` [Example 14, (S)-1-(2-(4-ethoxy-2-fluorophenyl)-3,4-dimethyl-2H-pyrazolo[3,4-d]pyridazin-7-yl)-N-((5-fluoropyridin-3-yl)methyl)pyrrolidin-3-amine] are at least 1000 nM and at least 5000 nM.
On to `CCOc1ccc(-n2nc3c(N4CC[C@H](NCc5cccnc5)C4)nnc(C)c3c2C)c(F)c1` [Example 11, (S)-1-(2-(4-ethoxy-2-fluorophenyl)-3,4-dimethyl-2H-pyrazolo[3,4-d]pyridazin-7-yl)-N-(pyridin-3-ylmethyl)pyrrolidin-3-amine], for which the Ki was 500 to 1000 nM in test [1] and under 500 nM in test [2].
On to `CCOc1ccc(-n2nc3c(N4CC[C@H](NCc5ccccc5O)C4)nnc(C)c3c2C)c(F)c1` [Example 9, (S)-2-(((1-(2-(4-ethoxy-2-fluorophenyl)-3,4-dimethyl-2H-pyrazolo[3,4-d]pyridazin-7-yl)pyrrolidin-3-yl)amino)methyl)phenol], for which the Ki is 100 to 500 nM in test [1] and under 500 nM in test [2].
As for `CCOc1ccc(-n2nc3c(N4CC[C@H](NCc5ccc(F)c(F)c5)C4)nnc(C)c3c2C)c(F)c1` [Example 7, (S)-N-(3,4-difluorobenzyl)-1-(2-(4-ethoxy-2-fluorophenyl)-3,4-dimethyl-2H-pyrazolo[3,4-d]pyridazin-7-yl)pyrrolidin-3-amine], the Ki in test [1] was under 100 nM; in test [2], under 500 nM.
On the same counts, the results for `CCOc1ccc(-n2nc3c(N4CC[C@@H](NCc5cccc(O)c5)C4)nnc(C)c3c2C)c(F)c1` [Example 8, (R)-3-(((1-(2-(4-ethoxy-2-fluorophenyl)-3,4-dimethyl-2H-pyrazolo[3,4-d]pyridazin-7-yl)pyrrolidin-3-yl)amino)methyl)phenol] are 100 to 500 nM and under 500 nM.
Consider `CCOc1ccc(-n2nc3c(N4CC[C@H](NC(=O)Cc5ccccn5)C4)nnc(C)c3c2C)c(F)c1` [Example 18, (S)-N-(1-(2-(4-Ethoxy-2-fluorophenyl)-3,4-dimethyl-2H-pyrazolo[3,4-d]pyridazin-7-yl)pyrrolidin-3-yl)-2-(pyridin-2-yl)acetamide], for which the Ki was at least 1000 nM in test [1] and under 500 nM in test [2].
Consider `CCOc1ccc(-n2nc3c(N4CC[C@H](NCc5ccccc5)C4)nnc(C)c3c2C)c(F)c1` [Example 1, (S)-N-Benzyl-1-(2-(4-ethoxy-2-fluorophenyl)-3,4-dimethyl-2H-pyrazolo[3,4-d]pyridazin-7-yl)pyrrolidin-3-amine], for which the figures for the Ki in test [1] and in test [2] were 100 to 500 nM and under 500 nM, respectively.
Consider `CCOc1ccc(-n2nc3c(N4CC[C@H](NCc5cccc(O)c5)C4)nnc(C)c3c2C)c(F)c1` [Example 3, (S)-3-(((1-(2-(4-ethoxy-2-fluorophenyl)-3,4-dimethyl-2H-pyrazolo[3,4-d]pyridazin-7-yl)pyrrolidin-3-yl)amino)methyl)phenol], for which the Ki in test [1] is 100 to 500 nM; in test [2], under 500 nM.
